According to article PMC12446476 (Nature Communications, 2025):
Where two headings read alike, the source gives them in different places.

Tested on: N. gonorrhoeae
Assay: MIC determination, Etest
Assay type: cell-based, Neisseria gonorrhoeae
Details: for MIC: Neisseria gonorrhoeae
Excerpt: The 2024 WHO N. gonorrhoeae reference strains were used for quality control. Only whole MIC doubling dilutions are reported. Clinical breakpoints or the epidemiological cutoff (ECOFF, to indicate azithromycin resistance) from EUCAST (v14.0, https://www.eucast.org/clinical_breakpoints) were used to classify isolates as antimicrobial susceptible or resistant. […] Two times the standard inoculum defined by CLSI was used to establish consistent growth in untreated control samples for some strains. In vitro time-kill assays were performed according to CLSI guidelines[65] using Columbia Broth (BD Difco) supplemented with 1% IsoVitaleX Enrichment (BD). Viable bacterial counts were generated by plating 10-fold serially diluted samples on GC agar plates containing 1% IsoVitaleX Enrichment (BD).

CN[C@@H]1[C@H](O)[C@H](NC)[C@H]2O[C@@]3(O)C(=O)C[C@@H](C)O[C@H]3O[C@@H]2[C@H]1O [Spectinomycin]
susceptible: susceptibility of all isolates (100 contemporary clinical N. gonorrhoeae isolates, EUCAST)
> 1020 µg/mL: MIC (WHO O, Etest, read-out: MIC)
4 µg/mL: MIC (comparator antibiotics, clinical N. gonorrhoeae isolate 91, Sweden 2023, read-out: Minimum inhibitory concentration) | MIC (comparator antibiotics, clinical N. gonorrhoeae isolate 98, Sweden 2023, read-out: Minimum inhibitory concentration) | MIC (comparator antibiotics, clinical N. gonorrhoeae isolate 99, Sweden 2023, read-out: Minimum inhibitory concentration)
S: AMR phenotype (susceptibility category, EUCAST) (WHO F) | AMR phenotype (susceptibility category, EUCAST) (WHO H) | AMR phenotype (susceptibility category, EUCAST) (WHO K) | AMR phenotype (susceptibility category, EUCAST) (WHO L) | AMR phenotype (susceptibility category, EUCAST) (WHO M) | AMR phenotype (susceptibility category, EUCAST) (WHO P) | AMR phenotype (susceptibility category, EUCAST) (WHO Q) | AMR phenotype (susceptibility category, EUCAST) (WHO R) | AMR phenotype (susceptibility category, EUCAST) (WHO S2) | AMR phenotype (susceptibility category, EUCAST) (WHO U) | AMR phenotype (susceptibility category, EUCAST) (WHO V) | AMR phenotype (susceptibility category, EUCAST) (WHO X) | AMR phenotype (susceptibility category, EUCAST) (WHO Y) | AMR phenotype (susceptibility category, EUCAST) (WHO Z)
8 µg/mL: MIC (WHO H, Etest, read-out: MIC) | MIC (WHO P, Etest, read-out: MIC) | MIC (WHO Q, Etest, read-out: MIC) | MIC (WHO R, Etest, read-out: MIC) | MIC (WHO U, Etest, read-out: MIC) | MIC (comparator antibiotics, clinical N. gonorrhoeae isolate 2, Sweden 2023, read-out: Minimum inhibitory concentration) | MIC (comparator antibiotics, clinical N. gonorrhoeae isolate 5, Sweden 2023, read-out: Minimum inhibitory concentration) | MIC (comparator antibiotics, clinical N. gonorrhoeae isolate 6, Sweden 2023, read-out: Minimum inhibitory concentration) | MIC (comparator antibiotics, clinical N. gonorrhoeae isolate 9, Sweden 2023, read-out: Minimum inhibitory concentration) | MIC (comparator antibiotics, clinical N. gonorrhoeae isolate 16, Sweden 2023, read-out: Minimum inhibitory concentration) | MIC (comparator antibiotics, clinical N. gonorrhoeae isolate 17, Sweden 2023, read-out: Minimum inhibitory concentration) | MIC (comparator antibiotics, clinical N. gonorrhoeae isolate 22, Sweden 2023, read-out: Minimum inhibitory concentration) | MIC (comparator antibiotics, clinical N. gonorrhoeae isolate 23, Sweden 2023, read-out: Minimum inhibitory concentration) | MIC (comparator antibiotics, clinical N. gonorrhoeae isolate 25, Sweden 2023, read-out: Minimum inhibitory concentration) | MIC (comparator antibiotics, clinical N. gonorrhoeae isolate 27, Sweden 2023, read-out: Minimum inhibitory concentration) | MIC (comparator antibiotics, clinical N. gonorrhoeae isolate 28, Sweden 2023, read-out: Minimum inhibitory concentration) | MIC (comparator antibiotics, clinical N. gonorrhoeae isolate 30, Sweden 2023, read-out: Minimum inhibitory concentration) | MIC (comparator antibiotics, clinical N. gonorrhoeae isolate 31, Sweden 2023, read-out: Minimum inhibitory concentration) | MIC (comparator antibiotics, clinical N. gonorrhoeae isolate 32, Sweden 2023, read-out: Minimum inhibitory concentration) | MIC (comparator antibiotics, clinical N. gonorrhoeae isolate 33, Sweden 2023, read-out: Minimum inhibitory concentration) | MIC (comparator antibiotics, clinical N. gonorrhoeae isolate 34, Sweden 2023, read-out: Minimum inhibitory concentration) | MIC (comparator antibiotics, clinical N. gonorrhoeae isolate 36, Sweden 2023, read-out: Minimum inhibitory concentration) | MIC (comparator antibiotics, clinical N. gonorrhoeae isolate 37, Sweden 2023, read-out: Minimum inhibitory concentration) | MIC (comparator antibiotics, clinical N. gonorrhoeae isolate 38, Sweden 2023, read-out: Minimum inhibitory concentration) | MIC (comparator antibiotics, clinical N. gonorrhoeae isolate 40, Sweden 2023, read-out: Minimum inhibitory concentration) | MIC (comparator antibiotics, clinical N. gonorrhoeae isolate 42, Sweden 2023, read-out: Minimum inhibitory concentration) | MIC (comparator antibiotics, clinical N. gonorrhoeae isolate 46, Sweden 2023, read-out: Minimum inhibitory concentration) | MIC (comparator antibiotics, clinical N. gonorrhoeae isolate 48, Sweden 2023, read-out: Minimum inhibitory concentration) | MIC (comparator antibiotics, clinical N. gonorrhoeae isolate 51, Sweden 2023, read-out: Minimum inhibitory concentration) | MIC (comparator antibiotics, clinical N. gonorrhoeae isolate 53, Sweden 2023, read-out: Minimum inhibitory concentration) | MIC (comparator antibiotics, clinical N. gonorrhoeae isolate 56, Sweden 2023, read-out: Minimum inhibitory concentration) | MIC (comparator antibiotics, clinical N. gonorrhoeae isolate 57, Sweden 2023, read-out: Minimum inhibitory concentration) | MIC (comparator antibiotics, clinical N. gonorrhoeae isolate 58, Sweden 2023, read-out: Minimum inhibitory concentration) | MIC (comparator antibiotics, clinical N. gonorrhoeae isolate 59, Sweden 2023, read-out: Minimum inhibitory concentration) | MIC (comparator antibiotics, clinical N. gonorrhoeae isolate 61, Sweden 2023, read-out: Minimum inhibitory concentration) | MIC (comparator antibiotics, clinical N. gonorrhoeae isolate 62, Sweden 2023, read-out: Minimum inhibitory concentration) | MIC (comparator antibiotics, clinical N. gonorrhoeae isolate 70, Sweden 2023, read-out: Minimum inhibitory concentration) | MIC (comparator antibiotics, clinical N. gonorrhoeae isolate 72, Sweden 2023, read-out: Minimum inhibitory concentration) | MIC (comparator antibiotics, clinical N. gonorrhoeae isolate 75, Sweden 2023, read-out: Minimum inhibitory concentration) | MIC (comparator antibiotics, clinical N. gonorrhoeae isolate 76, Sweden 2023, read-out: Minimum inhibitory concentration) | MIC (comparator antibiotics, clinical N. gonorrhoeae isolate 79, Sweden 2023, read-out: Minimum inhibitory concentration) | MIC (comparator antibiotics, clinical N. gonorrhoeae isolate 83, Sweden 2023, read-out: Minimum inhibitory concentration) | MIC (comparator antibiotics, clinical N. gonorrhoeae isolate 85, Sweden 2023, read-out: Minimum inhibitory concentration) | MIC (comparator antibiotics, clinical N. gonorrhoeae isolate 86, Sweden 2023, read-out: Minimum inhibitory concentration) | MIC (comparator antibiotics, clinical N. gonorrhoeae isolate 87, Sweden 2023, read-out: Minimum inhibitory concentration) | MIC (comparator antibiotics, clinical N. gonorrhoeae isolate 92, Sweden 2023, read-out: Minimum inhibitory concentration) | MIC (comparator antibiotics, clinical N. gonorrhoeae isolate 94, Sweden 2023, read-out: Minimum inhibitory concentration) | MIC (comparator antibiotics, clinical N. gonorrhoeae isolate 96, Sweden 2023, read-out: Minimum inhibitory concentration)
16 µg/mL: MIC (WHO F, Etest, read-out: MIC) | MIC (WHO K, Etest, read-out: MIC) | MIC (WHO L, Etest, read-out: MIC) | MIC (WHO M, Etest, read-out: MIC) | MIC (WHO S2, Etest, read-out: MIC) | MIC (WHO V, Etest, read-out: MIC) | MIC (WHO X, Etest, read-out: MIC) | MIC (WHO Y, Etest, read-out: MIC) | MIC (WHO Z, Etest, read-out: MIC) | MIC (comparator antibiotics, clinical N. gonorrhoeae isolate 1, Sweden 2023, read-out: Minimum inhibitory concentration) | MIC (comparator antibiotics, clinical N. gonorrhoeae isolate 3, Sweden 2023, read-out: Minimum inhibitory concentration) | MIC (comparator antibiotics, clinical N. gonorrhoeae isolate 4, Sweden 2023, read-out: Minimum inhibitory concentration) | MIC (comparator antibiotics, clinical N. gonorrhoeae isolate 7, Sweden 2023, read-out: Minimum inhibitory concentration) | MIC (comparator antibiotics, clinical N. gonorrhoeae isolate 8, Sweden 2023, read-out: Minimum inhibitory concentration) | MIC (comparator antibiotics, clinical N. gonorrhoeae isolate 10, Sweden 2023, read-out: Minimum inhibitory concentration) | MIC (comparator antibiotics, clinical N. gonorrhoeae isolate 11, Sweden 2023, read-out: Minimum inhibitory concentration) | MIC (comparator antibiotics, clinical N. gonorrhoeae isolate 12, Sweden 2023, read-out: Minimum inhibitory concentration) | MIC (comparator antibiotics, clinical N. gonorrhoeae isolate 13, Sweden 2023, read-out: Minimum inhibitory concentration) | MIC (comparator antibiotics, clinical N. gonorrhoeae isolate 14, Sweden 2023, read-out: Minimum inhibitory concentration) | MIC (comparator antibiotics, clinical N. gonorrhoeae isolate 15, Sweden 2023, read-out: Minimum inhibitory concentration) | MIC (comparator antibiotics, clinical N. gonorrhoeae isolate 18, Sweden 2023, read-out: Minimum inhibitory concentration) | MIC (comparator antibiotics, clinical N. gonorrhoeae isolate 19, Sweden 2023, read-out: Minimum inhibitory concentration) | MIC (comparator antibiotics, clinical N. gonorrhoeae isolate 20, Sweden 2023, read-out: Minimum inhibitory concentration) | MIC (comparator antibiotics, clinical N. gonorrhoeae isolate 21, Sweden 2023, read-out: Minimum inhibitory concentration) | MIC (comparator antibiotics, clinical N. gonorrhoeae isolate 24, Sweden 2023, read-out: Minimum inhibitory concentration) | MIC (comparator antibiotics, clinical N. gonorrhoeae isolate 26, Sweden 2023, read-out: Minimum inhibitory concentration) | MIC (comparator antibiotics, clinical N. gonorrhoeae isolate 29, Sweden 2023, read-out: Minimum inhibitory concentration) | MIC (comparator antibiotics, clinical N. gonorrhoeae isolate 35, Sweden 2023, read-out: Minimum inhibitory concentration) | MIC (comparator antibiotics, clinical N. gonorrhoeae isolate 39, Sweden 2023, read-out: Minimum inhibitory concentration) | MIC (comparator antibiotics, clinical N. gonorrhoeae isolate 41, Sweden 2023, read-out: Minimum inhibitory concentration) | MIC (comparator antibiotics, clinical N. gonorrhoeae isolate 43, Sweden 2023, read-out: Minimum inhibitory concentration) | MIC (comparator antibiotics, clinical N. gonorrhoeae isolate 44, Sweden 2023, read-out: Minimum inhibitory concentration) | MIC (comparator antibiotics, clinical N. gonorrhoeae isolate 45, Sweden 2023, read-out: Minimum inhibitory concentration) | MIC (comparator antibiotics, clinical N. gonorrhoeae isolate 47, Sweden 2023, read-out: Minimum inhibitory concentration) | MIC (comparator antibiotics, clinical N. gonorrhoeae isolate 49, Sweden 2023, read-out: Minimum inhibitory concentration) | MIC (comparator antibiotics, clinical N. gonorrhoeae isolate 50, Sweden 2023, read-out: Minimum inhibitory concentration) | MIC (comparator antibiotics, clinical N. gonorrhoeae isolate 52, Sweden 2023, read-out: Minimum inhibitory concentration) | MIC (comparator antibiotics, clinical N. gonorrhoeae isolate 54, Sweden 2023, read-out: Minimum inhibitory concentration) | MIC (comparator antibiotics, clinical N. gonorrhoeae isolate 55, Sweden 2023, read-out: Minimum inhibitory concentration) | MIC (comparator antibiotics, clinical N. gonorrhoeae isolate 60, Sweden 2023, read-out: Minimum inhibitory concentration) | MIC (comparator antibiotics, clinical N. gonorrhoeae isolate 63, Sweden 2023, read-out: Minimum inhibitory concentration) | MIC (comparator antibiotics, clinical N. gonorrhoeae isolate 64, Sweden 2023, read-out: Minimum inhibitory concentration) | MIC (comparator antibiotics, clinical N. gonorrhoeae isolate 65, Sweden 2023, read-out: Minimum inhibitory concentration) | MIC (comparator antibiotics, clinical N. gonorrhoeae isolate 66, Sweden 2023, read-out: Minimum inhibitory concentration) | MIC (comparator antibiotics, clinical N. gonorrhoeae isolate 67, Sweden 2023, read-out: Minimum inhibitory concentration) | MIC (comparator antibiotics, clinical N. gonorrhoeae isolate 68, Sweden 2023, read-out: Minimum inhibitory concentration) | MIC (comparator antibiotics, clinical N. gonorrhoeae isolate 69, Sweden 2023, read-out: Minimum inhibitory concentration) | MIC (comparator antibiotics, clinical N. gonorrhoeae isolate 71, Sweden 2023, read-out: Minimum inhibitory concentration) | MIC (comparator antibiotics, clinical N. gonorrhoeae isolate 73, Sweden 2023, read-out: Minimum inhibitory concentration) | MIC (comparator antibiotics, clinical N. gonorrhoeae isolate 74, Sweden 2023, read-out: Minimum inhibitory concentration) | MIC (comparator antibiotics, clinical N. gonorrhoeae isolate 77, Sweden 2023, read-out: Minimum inhibitory concentration) | MIC (comparator antibiotics, clinical N. gonorrhoeae isolate 78, Sweden 2023, read-out: Minimum inhibitory concentration) | MIC (comparator antibiotics, clinical N. gonorrhoeae isolate 80, Sweden 2023, read-out: Minimum inhibitory concentration) | MIC (comparator antibiotics, clinical N. gonorrhoeae isolate 81, Sweden 2023, read-out: Minimum inhibitory concentration) | MIC (comparator antibiotics, clinical N. gonorrhoeae isolate 82, Sweden 2023, read-out: Minimum inhibitory concentration) | MIC (comparator antibiotics, clinical N. gonorrhoeae isolate 84, Sweden 2023, read-out: Minimum inhibitory concentration) | MIC (comparator antibiotics, clinical N. gonorrhoeae isolate 88, Sweden 2023, read-out: Minimum inhibitory concentration) | MIC (comparator antibiotics, clinical N. gonorrhoeae isolate 89, Sweden 2023, read-out: Minimum inhibitory concentration) | MIC (comparator antibiotics, clinical N. gonorrhoeae isolate 90, Sweden 2023, read-out: Minimum inhibitory concentration) | MIC (comparator antibiotics, clinical N. gonorrhoeae isolate 93, Sweden 2023, read-out: Minimum inhibitory concentration) | MIC (comparator antibiotics, clinical N. gonorrhoeae isolate 95, Sweden 2023, read-out: Minimum inhibitory concentration) | MIC (comparator antibiotics, clinical N. gonorrhoeae isolate 97, Sweden 2023, read-out: Minimum inhibitory concentration) | MIC (comparator antibiotics, clinical N. gonorrhoeae isolate 100, Sweden 2023, read-out: Minimum inhibitory concentration)
R: AMR phenotype (susceptibility category, EUCAST) (WHO O)
